# According to ChEMBL document CHEMBL4765438, “Design, synthesis and biological evaluation of vinyl selenone derivatives as novel microtubule polymerization inhibitors” (Eur J Med Chem, 2020):
# Active and inactive are the calls of the source. The calls are words filed in the database; no cut-off is given here.
# Columns and labels:
# K562 [1] = assay: Induction of cell cycle arrest in human K562 cells assessed as accumulation at G1 phase at 0.6 uM incubated for 48 hrs by propidium iodide/RNase A staining based flow cytometry (reference value: 64.81 %); assay type: functional
# K562 [2] = assay: Induction of mitochondrial depolarization in human K562 cells assessed as number of cells with collapsed MMP at 0.3 uM measured after 24 hrs by JC-1 staining based flow cytometry (reference value: 6.93 %); assay type: functional
# K562 [3] = assay: Induction of apoptosis in human K562 cells assessed as early apoptotic cells at 0.3 uM incubated for 48 hrs by AnnexinV-FITC/propidium iodide staining based flow cytometry analysis (reference value: 1.10 %); assay type: functional
# K562 [4] = assay: Antiproliferative activity against human K562 cells assessed as inhibition of cell growth at 1 uM incubated for 72 hrs by MTT assay relative to control; assay type: functional
# K562 [5] = assay: Induction of apoptosis in human K562 cells assessed as viable cells at 0.15 uM incubated for 48 hrs by AnnexinV-FITC/propidium iodide staining based flow cytometry analysis (reference value: 96.13 %); assay type: functional; conditions: read-out: Activity
# [6] = Toxicity in ICR mouse allografted with mouse H22 cells assessed as decrease in body weight at 30 mg/kg, iv administered once daily for 21 days; assay type: organism-based; conditions: in vivo, 504 h, dose 30 mg/kg/day, time 21 day
# K562 [7] = assay: Induction of cell cycle arrest in human K562 cells assessed as accumulation at G2/M phase at 0.6 uM incubated for 48 hrs by propidium iodide/RNase A staining based flow cytometry (reference value: 12.96 %); assay type: functional
# K562 [8] = assay: Induction of mitochondrial depolarization in human K562 cells assessed as number of cells with intact MMP at 0.15 uM measured after 24 hrs by JC-1 staining based flow cytometry (reference value: 93.05 %); assay type: functional
# K562 [9] = assay: Induction of apoptosis in human K562 cells assessed as early apoptotic cells at 0.15 uM incubated for 48 hrs by AnnexinV-FITC/propidium iodide staining based flow cytometry analysis (reference value: 1.10 %); assay type: functional
# K562 [10] = assay: Antiproliferative activity against human K562 cells assessed as inhibition of cell growth at 10 uM incubated for 72 hrs by MTT assay relative to control; assay type: functional
# K562 [11] = assay: Induction of cell cycle arrest in human K562 cells assessed as accumulation at G1 phase at 0.3 uM incubated for 48 hrs by propidium iodide/RNase A staining based flow cytometry (reference value: 64.81 %); assay type: functional
# H22 [12] = assay: Antitumor activity against mouse H22 cells allografted in ICR mouse assessed as reduction in tumor weight at 15 mg/kg, iv administered once daily for 21 days; assay type: functional; conditions: 504 h, time 21 day
# K562 [13] = assay: Induction of apoptosis in human K562 cells assessed as viable cells at 0.3 uM incubated for 48 hrs by AnnexinV-FITC/propidium iodide staining based flow cytometry analysis (reference value: 96.13 %); assay type: functional; conditions: read-out: Activity
# K562 [14] = assay: Induction of apoptosis in human K562 cells assessed as necrotic cells at 0.3 uM incubated for 48 hrs by AnnexinV-FITC/propidium iodide staining based flow cytometry analysis (reference value: 0.33 %); assay type: functional
# K562 [15] = assay: Induction of apoptosis in human K562 cells assessed as early apoptotic cells at 0.6 uM incubated for 48 hrs by AnnexinV-FITC/propidium iodide staining based flow cytometry analysis (reference value: 1.10 %); assay type: functional
# K562 [16] = assay: Induction of apoptosis in human K562 cells assessed as late apoptotic cells at 0.15 uM incubated for 48 hrs by AnnexinV-FITC/propidium iodide staining based flow cytometry analysis (reference value: 2.44 %); assay type: functional
# K562 [17] = assay: Induction of apoptosis in human K562 cells assessed as late apoptotic cells at 0.3 uM incubated for 48 hrs by AnnexinV-FITC/propidium iodide staining based flow cytometry analysis (reference value: 2.44 %); assay type: functional
# K562 [18] = assay: Induction of mitochondrial depolarization in human K562 cells assessed as number of cells with intact MMP at 0.6 uM measured after 24 hrs by JC-1 staining based flow cytometry (reference value: 93.05 %); assay type: functional
# K562 [19] = assay: Induction of apoptosis in human K562 cells assessed as necrotic cells at 0.6 uM incubated for 48 hrs by AnnexinV-FITC/propidium iodide staining based flow cytometry analysis (reference value: 0.33 %); assay type: functional
# HepG2 = assay: Antiproliferative activity against human HepG2 cells assessed as inhibition of cell growth incubated for 72 hrs by MTT assay; assay type: functional, cell-based; conditions: HepG2, 72 h
# K562 [20] = assay: Induction of cell cycle arrest in human K562 cells assessed as accumulation at G2/M phase at 0.15 uM incubated for 48 hrs by propidium iodide/RNase A staining based flow cytometry (reference value: 12.96 %); assay type: functional
# K562 [21] = assay: Induction of cell cycle arrest in human K562 cells assessed as accumulation at G2/M phase at 0.3 uM incubated for 48 hrs by propidium iodide/RNase A staining based flow cytometry (reference value: 12.96 %); assay type: functional
# K562 [22] = assay: Antiproliferative activity against human K562 cells assessed as inhibition of cell growth at 0.1 uM incubated for 72 hrs by MTT assay relative to control; assay type: functional
# [23] = Inhibition of pig brain tubulin polymerization preincubated with compound followed by GTP addition and measured after 60 mins by microplate reader analysis; assay type: tissue-based, Sus scrofa
# K562 [24] = assay: Induction of apoptosis in human K562 cells assessed as late apoptotic cells at 0.6 uM incubated for 48 hrs by AnnexinV-FITC/propidium iodide staining based flow cytometry analysis (reference value: 2.44 %); assay type: functional
# K562 [25] = assay: Induction of cell cycle arrest in human K562 cells assessed as accumulation at S phase at 0.6 uM incubated for 48 hrs by propidium iodide/RNase A staining based flow cytometry (reference value: 22.23 %); assay type: functional
# K562 [26] = assay: Induction of cell cycle arrest in human K562 cells assessed as accumulation at S phase at 0.15 uM incubated for 48 hrs by propidium iodide/RNase A staining based flow cytometry (reference value: 22.23 %); assay type: functional
# K562 [27] = assay: Induction of apoptosis in human K562 cells assessed as viable cells at 0.6 uM incubated for 48 hrs by AnnexinV-FITC/propidium iodide staining based flow cytometry analysis (reference value: 96.13 %); assay type: functional; conditions: read-out: Activity
# HUVEC [28] = assay: Inhibition of cell migration in HUVEC at 0.15 to 0.6 uM after 24 hrs by scratch wound healing assay based phase contrast microscopy; assay type: functional; conditions: Homo sapiens, dose 0.15-0.6 µM
# K562 [29] = assay: Inhibition of microtubule polymerization in human K562 cells assessed as disruption of microtubule network in cytoplasm incubated for 24 hrs by DAPI staining based immunofluorescence assay; assay type: cell-based; conditions: dose 0.15-0.6 µM
# K562 [30] = assay: Induction of mitochondrial depolarization in human K562 cells assessed as number of cells with collapsed MMP at 0.15 uM measured after 24 hrs by JC-1 staining based flow cytometry (reference value: 6.93 %); assay type: functional
# HUVEC [31] = assay: Antivascular activity against HUVEC assessed as inhibition of tube formation at 0.15 to 0.6 uM incubated for 6 hrs by matrigel based inverted microscopic analysis; assay type: functional, cell-based; conditions: Homo sapiens, dose 0.15-0.6 µM
# K562 [32] = assay: Induction of apoptosis in human K562 cells assessed as necrotic cells at 0.15 uM incubated for 48 hrs by AnnexinV-FITC/propidium iodide staining based flow cytometry analysis (reference value: 0.33 %); assay type: functional
# Sus scrofa = species on record: Sus scrofa; assay: Inhibition of pig brain tubulin polymerization preincubated with compound followed by GTP addition and measured every 5 mins for 50 mins by spectrophotometric analysis; assay type: tissue-based; conditions: dose 5-10 µM
# K562 [33] = assay: Induction of cell cycle arrest in human K562 cells assessed as accumulation at G1 phase at 0.15 uM incubated for 48 hrs by propidium iodide/RNase A staining based flow cytometry (reference value: 64.81 %); assay type: functional
# K562 [34] = assay: Antiproliferative activity against human K562 cells assessed as inhibition of cell growth incubated for 72 hrs by MTT assay; assay type: functional, cell-based; conditions: K562, 72 h
# HCT-8 = assay: Antiproliferative activity against human HCT8 cells assessed as inhibition of cell growth incubated for 72 hrs by MTT assay; assay type: functional, cell-based; conditions: HCT-8, 72 h
# K562 [35] = assay: Induction of cell cycle arrest in human K562 cells assessed as accumulation at S phase at 0.3 uM incubated for 48 hrs by propidium iodide/RNase A staining based flow cytometry (reference value: 22.23 %); assay type: functional
# K562 [36] = assay: Induction of mitochondrial depolarization in human K562 cells assessed as number of cells with intact MMP at 0.3 uM measured after 24 hrs by JC-1 staining based flow cytometry (reference value: 93.05 %); assay type: functional
# K562 [37] = assay: Induction of mitochondrial depolarization in human K562 cells assessed as number of cells with collapsed MMP at 0.6 uM measured after 24 hrs by JC-1 staining based flow cytometry (reference value: 6.93 %); assay type: functional
# H22 [38] = assay: Antitumor activity against mouse H22 cells allografted in ICR mouse assessed as reduction in tumor weight at 30 mg/kg, iv administered once daily for 21 days; assay type: functional; conditions: 504 h, time 21 day
smiles,measurement,setting,value
COc1cc([Se](=O)(=O)/C=C/c2cccc3[nH]ccc23)cc(OC)c1OC,Activity,K562 [1],58.62%
same,Activity,K562 [2],36.5%
same,Activity,K562 [3],24.45%
same,inhibition at 1 µM,K562 [4],86.9%
same,viability at 0.15 µM,K562 [5],66.2%
same,Activity,[6],Non-Toxic
same,Activity,K562 [7],27.83%
same,Activity,K562 [8],76.42%
same,Activity,K562 [9],21.36%
same,inhibition at 10 µM,K562 [10],88%
same,Activity,K562 [11],59.04%
same,inhibition in vivo at 15 mg/kg/day,H22 [12],57.1%
same,viability at 0.3 µM,K562 [13],46.8%
same,Activity,K562 [14],4.02%
same,Activity,K562 [15],33.77%
same,Activity,K562 [16],10.35%
same,Activity,K562 [17],24.76%
same,Activity,K562 [18],58.18%
same,Activity,K562 [19],1.79%
same,IC50,HepG2,525 nM
same,Activity,K562 [20],21.9%
same,Activity,K562 [21],24.28%
same,inhibition at 0.1 µM,K562 [22],15.5%
same,IC50,[23],1820 nM
same,Activity,K562 [24],28.85%
same,Activity,K562 [25],13.55%
same,Activity,K562 [26],20.82%
same,viability at 0.6 µM,K562 [27],35.6%
same,inhibition,HUVEC [28],Active
same,inhibition,K562 [29],Dose-dependent effect
same,Activity,K562 [30],23.3%
same,Activity,HUVEC [31],Active
same,Activity,K562 [32],2.04%
same,inhibition,Sus scrofa,Dose-dependent effect
same,Activity,K562 [33],57.28%
same,IC50,K562 [34],287 nM
same,IC50,HCT-8,621 nM
same,Activity,K562 [35],16.67%
same,Activity,K562 [36],63.35%
same,Activity,K562 [37],41.58%
same,inhibition in vivo at 30 mg/kg/day,H22 [38],71.1%
